# In PubChem BioAssay AID977605 (Broad Institute, 2014):
# Activity calls are given as the source filed them.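 Rule for the calls: active = fitted curve reaches 40% activation below the top valid tested dose, in every test run; inconclusive = test runs disagree on the call; inactive = the rest, including effects opposite to the expected direction.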
# Assay: endothelial E-selectin upregulation by compounds – imaging, HUVEC, cherry-picked samples, dose response (AID 977605);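 note: signal is the share of imaged cells scored positive for E-selectin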
# Details: HUVEC E-selectin immunostaining
# [1] = at 19.5 µM (top of the series), percent of TNF-alpha response over vehicle
# [2] = at 21 µM (top of the series), percent of TNF-alpha response over vehicle
SMILES,activation [1],further results
CC(=O)Nc1ccc(NC(=O)COc2ccc(Cl)cc2Cl)cc1,-0.194% (inactive),
C[C@@H]1CN([C@@H](C)CO)C(=O)Cc2cc(NC(=O)Nc3ccc(F)cc3)ccc2O[C@H]1CN(C)Cc1ccc(C(=O)O)cc1,-0.089% (inactive),
COc1ccc(S(=O)(=O)Nc2ccc3c(c2)CC(=O)N([C@H](C)CO)C[C@@H](C)[C@H](CN(C)C(=O)NC2CCCCC2)O3)cc1,-0.114% (inactive),
C[C@@H]1CN([C@@H](C)CO)C(=O)c2cc(NC(=O)Cc3ccccc3)ccc2O[C@@H]1CN(C)C(=O)Nc1cccc2ccccc12,-0.101% (inactive),
Cc1cc(C(=O)Nc2cccc3c2O[C@@H](CN(C)S(=O)(=O)c2ccc(F)cc2)[C@@H](C)CN([C@H](C)CO)C3=O)n(C)n1,0.077% (inactive),
Cc1cc(C)c2sc(NNC(=O)C3COc4ccccc4O3)nc2c1 (configuration not stated),0.141% (inactive),
COc1cccc(CNC(=O)c2cc3c(cc2Cl)N2CCCCCC2=NS3(=O)=O)c1,-0.058% (inactive),
CC(C)NC(=O)N(C)C[C@H]1Oc2ccc(NC(=O)CCC(F)(F)F)cc2CC(=O)N([C@@H](C)CO)C[C@@H]1C,,activation [2]: -0.117% (inactive)
CCNC(=O)C[C@@H]1CC[C@H]2[C@@H](COc3ccc(NC(=O)Nc4ccc(F)cc4)cc3C(=O)N2C)O1,-0.137% (inactive),
COc1ccc(S(=O)(=O)Nc2ccc3c(c2)C(=O)N([C@@H](C)CO)C[C@@H](C)[C@@H](CN(C)Cc2ccc(Cl)c(Cl)c2)O3)cc1,,activation [2]: -0.053% (inactive)
COc1ccc(S(=O)(=O)N(C)C[C@H]2Oc3ccc(NC(=O)c4ccncc4)cc3C(=O)N([C@@H](C)CO)C[C@@H]2C)cc1,-0.047% (inactive),
C[C@@H]1CN([C@@H](C)CO)C(=O)Cc2cc(NC(=O)c3ccncc3)ccc2O[C@@H]1CN(C)S(=O)(=O)c1cn(C)cn1,-0.153% (inactive),
C[C@H](CO)N1C[C@H](C)[C@@H](CN(C)Cc2ccc(C(F)(F)F)cc2)Oc2ccc(N(C)C)cc2CC1=O,0.906% (inactive),
CC(C)NC(=O)Nc1ccc2c(c1)CC(=O)N([C@@H](C)CO)C[C@H](C)[C@@H](CN(C)Cc1ccc(C(=O)O)cc1)O2,0.001% (inactive),
C[C@H]1CN([C@@H](C)CO)C(=O)c2cc(NC(=O)CCCCCC(=O)Nc3ccccc3N)ccc2O[C@H]1CN(C)C(=O)Nc1ccc(F)cc1,0.137% (inactive),
C[C@H](CO)N1C[C@H](C)[C@H](CN(C)S(=O)(=O)c2cccs2)Oc2c(NC(=O)Nc3ccccc3)cccc2C1=O,1% (inactive),
Cc1noc(C)c1NC(=O)N(C)C[C@H]1Oc2ccc(NC(=O)c3ccncc3)cc2C(=O)N([C@H](C)CO)C[C@H]1C,0.014% (inactive),
CC(C)NC(=O)N(C)C[C@@H]1Oc2ccc(NC(=O)CCN3CCOCC3)cc2C(=O)N([C@@H](C)CO)C[C@H]1C,0.429% (inactive),
C[C@@H]1CN([C@@H](C)CO)C(=O)Cc2cc(NC(=O)c3ccncc3)ccc2O[C@H]1CN(C)Cc1ccc(Oc2ccccc2)cc1,0.031% (inactive),
CC1=NC(C)(C)Cc2c(C)cccc21,-0.148% (inactive),
Cc1c(C(=O)NCc2ccco2)oc2ccccc12,-0.246% (inactive),
CC(C)(C)c1ccc(NC(=O)N2CCCN(c3ccc([N+](=O)[O-])cn3)CC2)cc1,0.154% (inactive),
CC(C)NC(=O)Nc1cccc2c1O[C@H](CN(C)Cc1ccc(Cl)c(Cl)c1)[C@H](C)CN([C@@H](C)CO)C2=O,-0.02% (inactive),

SMILES,activation [1],further results
C[C@@H]1CN([C@@H](C)CO)C(=O)c2cc(NC(=O)NC3CCCCC3)ccc2O[C@@H]1CN(C)Cc1ccc2c(c1)OCO2,-0.021% (inactive),
C[C@@H]1CN([C@H](C)CO)C(=O)c2cc(NS(C)(=O)=O)ccc2O[C@@H]1CN(C)Cc1ccc(C(F)(F)F)cc1,-0.068% (inactive),
CC(=O)NC1C(=O)N(CCN2CCOCC2)c2ccc(F)cc21 (configuration not stated),-0.179% (inactive),
CCCC#Cc1ccc2c(c1)O[C@@H](CN(C)C(=O)c1ccncc1)[C@H](C)CN([C@@H](C)CO)S2(=O)=O,-0.24% (inactive),
C[C@H]1CN([C@@H](C)CO)C(=O)c2cc(NC(=O)Cn3cnnn3)ccc2O[C@H]1CN(C)Cc1ccc(Oc2ccccc2)cc1,,activation [2]: 0.004% (inactive)
C[C@H]1CN([C@@H](C)CO)C(=O)c2cc(NC(=O)Cn3cnnn3)ccc2O[C@@H]1CN(C)Cc1ccc2c(c1)OCO2,,activation [2]: -0.073% (inactive)
C[C@@H]1CN([C@@H](C)CO)C(=O)c2cccc(NC(=O)Nc3ccccc3)c2O[C@H]1CN(C)S(=O)(=O)c1ccccc1,0.91% (inactive),
COc1ccc(S(=O)(=O)N(C)C[C@H]2Oc3c(NC(=O)Nc4c(C)noc4C)cccc3C(=O)N([C@@H](C)CO)C[C@H]2C)cc1,-0.174% (inactive),
Cc1noc(C)c1NC(=O)N(C)C[C@H]1Oc2ccc(NS(=O)(=O)c3cccs3)cc2C(=O)N([C@H](C)CO)C[C@H]1C,-0.05% (inactive),
Cc1cccc(CN2CCCC(C(=O)c3ccc4c(c3)OCO4)C2)n1 (configuration not stated),,activation (at 19.5 µM (top of the series)): 4.78% (inactive)
Cc1ccc(S(=O)(=O)Nc2ccc3c(c2)C(=O)N([C@H](C)CO)C[C@@H](C)[C@H](CN(C)Cc2ccc(-c4ccccc4)cc2)O3)cc1,-0.157% (inactive),
Cc1noc(C)c1NC(=O)N(C)C[C@H]1Oc2ccc(NS(=O)(=O)c3cccs3)cc2C(=O)N([C@H](C)CO)C[C@@H]1C,3.28% (inactive),
COc1ccc(CN2CCN(C(=O)c3ccccc3C(=O)c3ccccc3)CC2)cc1OC,0.003% (inactive),
C[C@@H]1CN([C@H](C)CO)C(=O)Cc2cc(NC(=O)Cn3cnnn3)ccc2O[C@H]1CN(C)C(=O)Nc1ccc(C(F)(F)F)cc1,0.232% (inactive),
COc1ccc(CN(C)C[C@@H]2Oc3ccc(NC(=O)Nc4ccc(F)cc4)cc3CC(=O)N([C@H](C)CO)C[C@@H]2C)cc1,-0.068% (inactive),
C[C@@H]1CN([C@H](C)CO)C(=O)c2cc(Br)cnc2O[C@@H]1CN(C)C(=O)C1CC1,-0.087% (inactive),
C[C@@H]1CN([C@H](C)CO)C(=O)c2cccc(NC(=O)Nc3ccc(F)cc3)c2O[C@H]1CN(C)C(=O)NC1CCCCC1,0.496% (inactive),
C[C@H](CO)N1C[C@H](C)[C@H](CN(C)CC2CC2)Oc2ccc(NC(=O)Cc3ccccc3)cc2CC1=O,0.216% (inactive),
C=C(C)CCC(C)N1CCC(n2nccc2NC(=O)CCOc2ccccc2)CC1 (configuration not stated),-0.056% (inactive),
C[C@@H]1CN([C@H](C)CO)C(=O)c2cc(NS(C)(=O)=O)ccc2O[C@H]1CN(C)C(=O)Nc1ccc2c(c1)OCO2,,activation [2]: 0.437% (inactive)
C[C@@H]1CN([C@@H](C)CO)S(=O)(=O)c2ccc(C#CC3CC3)cc2O[C@@H]1CN(C)Cc1cccnc1,-0.068% (inactive),
CCC(=O)N(C)C[C@H]1Oc2ncc(Br)cc2C(=O)N([C@@H](C)CO)C[C@@H]1C,0.243% (inactive),
CC(C)NC(=O)N(C)C[C@H]1Oc2ccc(NC(=O)CCN3CCOCC3)cc2C(=O)N([C@@H](C)CO)C[C@H]1C,-0.017% (inactive),

SMILES,activation [1],further results
COC(=O)C[C@@H]1CC[C@@H]2[C@H](COc3ccc(NC(=O)Nc4cccc(F)c4)cc3C(=O)N2C)O1,-0.161% (inactive),
C[C@H](CO)N1C[C@H](C)[C@@H](CN(C)S(C)(=O)=O)Oc2ccc(NS(=O)(=O)c3cccs3)cc2C1=O,-0.072% (inactive),
COc1ccc(NC(=O)N(C)C[C@@H]2Oc3c(NS(=O)(=O)c4cn(C)cn4)cccc3C(=O)N([C@@H](C)CO)C[C@H]2C)cc1,-0.199% (inactive),
Cc1ccc(OC(F)F)c(N2C(=O)C3C4CCC(O4)C3C2=O)c1 (configuration not stated),,activation (at 19.5 µM (top of the series)): -0.065% (inactive)
Cc1noc(C)c1S(=O)(=O)N(C)C[C@@H]1Oc2ccc(NC(=O)Nc3ccc(F)cc3)cc2CC(=O)N([C@@H](C)CO)C[C@@H]1C,-0.013% (inactive),
COc1ccc(N2CCN(C(=O)c3ccccc3NC(=O)C3=C(C)OCCS3)CC2)cc1,-0.181% (inactive),
O=C(COc1ccc(Cl)cc1)NCCCNC(=O)c1cnccn1,0.135% (inactive),
C[C@@H]1CN([C@H](C)CO)C(=O)Cc2cc(NC(=O)CCCCCC(=O)Nc3ccccc3N)ccc2O[C@H]1CN(C)C(=O)Nc1ccc2c(c1)OCO2,-0.123% (inactive),
CCN(Cc1ccccc1)S(=O)(=O)c1ccc(OC)c2ncccc12,-0.178% (inactive),
C[C@@H]1CN([C@H](C)CO)C(=O)Cc2cc(NC(=O)Nc3ccc4c(c3)OCO4)ccc2O[C@H]1CN(C)Cc1ccc(Cl)c(Cl)c1,0.291% (inactive),
C[C@H](CO)N1C[C@H](C)[C@H](CN(C)C)Oc2ccc(NC(=O)Nc3ccccc3)cc2CC1=O,,activation [2]: -0.138% (inactive)
C[C@@H]1CN([C@@H](C)CO)C(=O)c2cccc(NS(=O)(=O)c3cn(C)cn3)c2O[C@H]1CN(C)Cc1ccncc1,-0.172% (inactive),
C[C@H](CO)N1C[C@H](C)[C@H](CN(C)C(=O)Nc2ccccc2)Oc2c(NS(=O)(=O)c3cccs3)cccc2C1=O,-0.044% (inactive),
CC(=O)c1ccc(N(C(=O)CNC(=O)c2ccco2)C(C(=O)NC2CCCC2)c2ccc(C)o2)cc1 (configuration not stated),-0.024% (inactive),
CS(=O)(=O)N1CCc2cc(S(=O)(=O)NCCNS(=O)(=O)c3ccc4c(c3)CCN4S(C)(=O)=O)ccc21,0.185% (inactive),
COc1ccc(S(=O)(=O)N(C)C[C@H]2Oc3ccc(NC(=O)Nc4c(C)noc4C)cc3C(=O)N([C@H](C)CO)C[C@H]2C)cc1,0.58% (inactive),
COc1ccc(S(=O)(=O)Nc2ccc3c(c2)C(=O)N([C@H](C)CO)C[C@@H](C)[C@H](CN(C)Cc2ccc(Cl)c(Cl)c2)O3)cc1,-0.125% (inactive),
C[C@H]1CN([C@@H](C)CO)C(=O)c2cccc(NC(=O)Nc3cccc4ccccc34)c2O[C@H]1CN(C)Cc1ccc(-c2ccccc2)cc1,0.067% (inactive),
CC(C)CCNC(=O)c1cn(C)c2ccc(S(=O)(=O)N3CCCC3)cc2c1=O,-0.129% (inactive),
C[C@H]1CN([C@@H](C)CO)C(=O)c2cccc(NC(=O)c3ccncc3)c2O[C@H]1CN(C)Cc1ccc(C(=O)Nc2ccccc2N)cc1,0.016% (inactive),
C[C@@H]1CN([C@H](C)CO)C(=O)c2cc(NS(=O)(=O)c3cccs3)ccc2O[C@H]1CN(C)S(C)(=O)=O,-0.143% (inactive),
